This note sets out measurements from PubChem BioAssay (NCI).

Among the test systems are 786-0 renal; HT29 colon; OVCAR-3 ovarian; SK-MEL-2 melanoma; COLO 205 colon; HOP-62 NSCLC; RPMI-8226 leukemia; HCT-15 colon; MOLT-4 leukemia; MDA-MB-231 breast; KM12 colon; UACC-62 melanoma; M14 melanoma; MDA-N; T-47D breast; SK-MEL-5 melanoma; NCI-H522 lung; SR leukemia.
Holding throughout (assay): inhibition of tumour cell growth, NCI panel, 48 h

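How tested: cells in 96-well plates exposed to compound for 48 hours at five concentrations. At the TGI there is no net growth.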

Regarding `CCN(CC)c1ccc(C2Nc3ccc4ccccc4c3C3=C2C(=O)CCC3)cc1` (configuration not stated), the TGI with 786-0 renal was 76.8 µM; with HT29 colon, greater than 100 µM; in the assay with OVCAR-3 ovarian, greater than 100 µM; in the assay with SK-MEL-2 melanoma, greater than 100 µM; in the assay with COLO 205 colon, greater than 100 µM; in the assay with HOP-62 NSCLC, 69.5 µM. Further, the TGI in the assay on RPMI-8226 leukemia is greater than 100 µM; in the assay with HCT-15 colon, greater than 100 µM; with MOLT-4 leukemia, greater than 100 µM; in the assay on MDA-MB-231 breast, 50.8 µM; in the assay on KM12 colon it was greater than 100 µM; in the assay with UACC-62 melanoma it was greater than 100 µM. For the same compound, the TGI with M14 melanoma, with MDA-N and with T-47D breast was greater than 100 µM each time.

With `N/C(=N\N=C\c1cc(I)cc(I)c1O)NO`, the TGI is greater than 100 µM with 786-0 renal; greater than 100 µM in the assay with HT29 colon; greater than 100 µM with SK-MEL-5 melanoma; 14.6 µM with OVCAR-3 ovarian; greater than 100 µM in the assay with NCI-H522 lung; greater than 100 µM in the assay with SK-MEL-2 melanoma. For the same compound, the TGI in the assay on COLO 205 colon, in the assay with HOP-62 NSCLC, in the assay on HCT-15 colon, in the assay with MOLT-4 leukemia, with MDA-MB-231 breast and with KM12 colon was greater than 100 µM in each case. Also, the TGI was 95.5 µM in the assay on UACC-62 melanoma, 44.2 µM in the assay with M14 melanoma, greater than 100 µM with MDA-N and greater than 100 µM in the assay on T-47D breast.

In the case of `COC(=O)n1c(C)c(C=O)c2ccc(OC)cc21`, the TGI in the assay on 786-0 renal was greater than 100 µM; with HT29 colon, greater than 100 µM; with SK-MEL-5 melanoma it was 57.5 µM; in the assay with OVCAR-3 ovarian, greater than 100 µM; in the assay on NCI-H522 lung it was greater than 100 µM; with SK-MEL-2 melanoma, greater than 100 µM. Moreover, the TGI was greater than 100 µM in the assay on COLO 205 colon; 60.8 µM in the assay on HOP-62 NSCLC; 82.7 µM in the assay on HCT-15 colon; greater than 100 µM in the assay with MOLT-4 leukemia; greater than 100 µM with MDA-MB-231 breast; 89.9 µM with KM12 colon. The TGI is 57.1 µM in the assay with UACC-62 melanoma, greater than 100 µM with M14 melanoma, greater than 100 µM with SR leukemia and greater than 100 µM in the assay on T-47D breast.

For `CC1(C)S[C@H](CN)N[C@H]1C(=O)OC(c1ccccc1)c1ccccc1`, the TGI is greater than 100 µM in the assay on 786-0 renal; greater than 100 µM in the assay on HT29 colon; 31.4 µM in the assay with SK-MEL-5 melanoma; 83.4 µM in the assay on NCI-H522 lung; 93.3 µM in the assay with SK-MEL-2 melanoma; 33.8 µM with COLO 205 colon. Moreover, the TGI was greater than 100 µM with HOP-62 NSCLC; 54.2 µM in the assay on RPMI-8226 leukemia; greater than 100 µM in the assay on HCT-15 colon; 74.9 µM in the assay on MOLT-4 leukemia; greater than 100 µM in the assay with MDA-MB-231 breast; greater than 100 µM in the assay with KM12 colon. The TGI in the assay on UACC-62 melanoma is 81.4 µM; in the assay on M14 melanoma it was greater than 100 µM; in the assay on SR leukemia it was 63.6 µM; with T-47D breast, 74.3 µM.

For `COc1cc2c(cc1O)CN1CCC23C=C[C@@H](O)CC13` (some centres not stated), the TGI in the assay on 786-0 renal, with HT29 colon, in the assay with SK-MEL-5 melanoma, in the assay on OVCAR-3 ovarian, in the assay with NCI-H522 lung and in the assay with SK-MEL-2 melanoma was greater than 100 µM throughout. For the same compound, the TGI was 78.1 µM in the assay on COLO 205 colon; greater than 100 µM in the assay with HOP-62 NSCLC; greater than 100 µM in the assay on RPMI-8226 leukemia; greater than 100 µM with HCT-15 colon; greater than 100 µM with MOLT-4 leukemia; greater than 100 µM in the assay on KM12 colon. The TGI with UACC-62 melanoma, in the assay on M14 melanoma and with SR leukemia was greater than 100 µM in each case.

For `CCc1[nH]c(=O)c2oc3cc4ccccc4cc3c2c1C(=O)O`, the TGI in the assay on 786-0 renal, with HT29 colon, in the assay on OVCAR-3 ovarian, in the assay on NCI-H522 lung, in the assay with SK-MEL-2 melanoma and in the assay with HCT-15 colon was greater than 10 µM in each case. The TGI in the assay on MDA-MB-231 breast, with KM12 colon, with M14 melanoma and in the assay with SR leukemia was greater than 10 µM throughout.

With `Nc1ncnc2c1ncn2-c1ccc([N+](=O)[O-])cn1`, the TGI with 786-0 renal, in the assay with HT29 colon, with SK-MEL-5 melanoma, in the assay with OVCAR-3 ovarian, in the assay with SK-MEL-2 melanoma and with COLO 205 colon was greater than 100 µM in each case. Moreover, the TGI in the assay with HOP-62 NSCLC, in the assay with RPMI-8226 leukemia, in the assay on HCT-15 colon, in the assay with MDA-MB-231 breast, in the assay with KM12 colon and in the assay on UACC-62 melanoma was greater than 100 µM each time. The TGI with M14 melanoma, with MDA-N and in the assay on T-47D breast was greater than 100 µM each time.

Turning to `CCOC(=O)c1nc2ccc(C(F)(F)F)cc2nc1Nc1ccc(F)cc1`, the TGI in the assay with 786-0 renal, with HT29 colon, in the assay with OVCAR-3 ovarian, in the assay on NCI-H522 lung, with SK-MEL-2 melanoma and in the assay on COLO 205 colon was greater than 100 µM in each case. The TGI with HOP-62 NSCLC, in the assay with HCT-15 colon, with MOLT-4 leukemia, with KM12 colon, in the assay on UACC-62 melanoma and with M14 melanoma was greater than 100 µM each time. The TGI in the assay with MDA-N and in the assay with T-47D breast was greater than 100 µM each time.

Turning to `CCOC(=O)c1nc2ccccc2nc1Oc1ccc(C#N)cc1`, the TGI with 786-0 renal, with HT29 colon, in the assay on SK-MEL-5 melanoma, in the assay with OVCAR-3 ovarian, with SK-MEL-2 melanoma and with COLO 205 colon was greater than 100 µM throughout. Further, the TGI in the assay with HOP-62 NSCLC, in the assay with RPMI-8226 leukemia, with HCT-15 colon, with MOLT-4 leukemia, with KM12 colon and with UACC-62 melanoma was greater than 100 µM each time. Besides, the TGI with M14 melanoma, with MDA-N and in the assay with T-47D breast was greater than 100 µM throughout.
